Experimental data from PMC6427912 (Journal of medicinal chemistry, 2019).
Read-outs that look alike come from different tables or passages of the source.

Legend:
B. subtilis = B. subtilis growth inhibition assay; format: cell-based, Bacillus subtilis
B. anthracis Sterne = format: cell-based, Bacillus anthracis; conditions: B. anthracis Sterne growth inhibition
S. aureus = S. aureus growth inhibition assay; format: cell-based, Staphylococcus aureus; conditions: S. aureus growth inhibition
Mycobacterium smegmatis = experiment: M. smegmatis growth inhibition assay; format: cell-based
HEK293 cells = experiment: HEK293 cell growth inhibition assay; format: cell-based, human; conditions: HEK293 cell growth inhibition ED50, 24 hr incubation

Compound	Bs ED50 (B. subtilis; 12 hours)	Bs ED50 (B. subtilis; value in parentheses) [µM]	Ba ED50 (B. anthracis Sterne) [µg/mL]	Ba ED50 (B. anthracis Sterne; value in parentheses) [µM]	Sa ED50 (S. aureus) [µg/mL]	Sa ED50 (S. aureus; value in parentheses) [µM]	Ms ED50 (Mycobacterium smegmatis; 48 hours) [µg/mL]	Ms ED50 (Mycobacterium smegmatis; value in parentheses) [µM]	HEK 293 (HEK293 cells) [µg/mL]	HEK 293 (HEK293 cells; value in parentheses) [µM]
CC(C)CCCC(C)CCCn1cc[n+](CC(P(=O)([O-])O)P(=O)(O)O)c1 (centres unmarked) [Compound 75, Hydrogen(2-(1-(4,8-dimethylnonyl)-1H-imidazol-3-ium-3-yl)-1-phosphonoethyl) phosphonate]	1.7 µg/mL	4.1	1.8	4.4	26	63	1.4	3.4	181	440
CC(C)CCCC(C)CCNc1ccc[n+](CC(P(=O)([O-])O)P(=O)(O)O)c1 (centres unmarked) [Compound 78, Hydrogen(2-(3-((3,7-dimethyloctyl)amino)pyridin-1-ium-1-yl)-1-phosphonoethyl) phosphonate]	2.4 µg/mL	5.7	0.8	1.9	13	31	5.5	13	186	440
CC(C)CCCC(C)CCSc1ccc[n+](CC(P(=O)([O-])O)P(=O)(O)O)c1 (centres unmarked) [Compound 79, Hydrogen(2-(3-((3,7-dimethyloctyl)thio)pyridin-1-ium-1-yl)-1-phosphonoethyl) phosphonate]	2.8 µg/mL	6.4	0.4	0.9	18	41	6.2	14	224	510
CC(C)CCCC(C)CCn1cc[n+](CC(P(=O)([O-])O)P(=O)(O)O)c1 (centres unmarked) [Compound 82, Hydrogen(2-(1-(3,7-dimethyloctyl)-1H-imidazol-3-ium-3-yl)-1-phosphonoethyl) phosphonate]	4.6 µg/mL	12	4.3	11	34	86	15	38	170	420
CCCCCCCCCCCCCc1ccc[n+](CC(P(=O)([O-])O)P(=O)(O)O)c1 (centres unmarked) [Compound 83, Hydrogen (1-phosphono-2-(3-tridecylpyridin-1-ium-1-yl)ethyl)phosphonate]	5.5 µg/mL	12	2.2	4.9	30	67	7.2	16	22	48
CC(C)CCCC(C)CCSc1cc[n+](CC(P(=O)([O-])O)P(=O)(O)O)cc1 (centres unmarked) [Compound 85, Hydrogen(2-(4-((3,7-dimethyloctyl)thio)pyridin-1-ium-1-yl)-1-phosphonoethyl) phosphonate]	7.0 µg/mL	16	1.1	2.5	31	71	70	160	440	1000
CC(C)CCCC(C)CCc1csc(NCC(P(=O)(O)O)P(=O)(O)O)n1 (centres unmarked) [Compound 86, (2-((4-(3,7-Dimethyloctyl)thiazol-2-yl)amino)ethane-1,1-diyl)bis(phosphonic acid)]	8.3 µg/mL	19	5.0	12	23	54	150	350		
CC(C)CCCC(C)CCOc1cc(NCC(P(=O)(O)O)P(=O)(O)O)ccn1 (centres unmarked) [Compound 87, (2-((2-((3,7-Dimethyloctyl)oxy)pyridin-4-yl)amino)ethane-1,1-diyl)bis(phosphonic acid)]	21 µg/mL	48	3.2	7.3	35	80	75	170	530	1200
CC(C)CCCC(C)CCc1cnc(NCC(P(=O)(O)O)P(=O)(O)O)s1 (centres unmarked) [Compound 88, (2-((5-(3,7-Dimethyloctyl)thiazol-2-yl)amino)ethane-1,1-diyl)bis(phosphonic acid)]	21 µg/mL	49	7.4	17	36	84	150	350		
CC(C)CCCC(C)CCCC(C)CCOc1ccc[n+](CC(P(=O)([O-])O)P(=O)(O)O)c1 (centres unmarked) [Compound 90, Hydrogen(1-phosphono-2-(3-((3,7,11-trimethyldodecyl)oxy)pyridin-1-ium-1-yl)ethyl) phosphonate]	36 µg/mL	73	5.0	10	22	45	91	180		
CC(C)CCOc1ccc[n+](CC(P(=O)([O-])O)P(=O)(O)O)c1 (centres unmarked) [Compound 91, Hydrogen (2-(3-(isopentyloxy)pyridin-1-ium-1-yl)-1-phosphonoethyl)phosphonate]	41 µg/mL	120	8.6	24	17	48	65	180		
CC(C)CCCC(C)CCOc1cccc(NCC(P(=O)(O)O)P(=O)(O)O)n1 (centres unmarked) [Compound 92, (2-((6-((3,7-Dimethyloctyl)oxy)pyridin-2-yl)amino)ethane-1,1-diyl)bis(phosphonic acid)]	75 µg/mL	170	4.2	9.6	60	140	200	460		
O=P(O)(O)C(CNc1nccs1)P(=O)(O)O [Compound 93]	97 µg/mL	340	2.3	8.0	230	800	290	1000		
CC(C)CCCC(C)c1cnc(NCC(P(=O)(O)O)P(=O)(O)O)s1 (centres unmarked) [Compound 94, (2-((5-(6-Methylheptan-2-yl)thiazol-2-yl)amino)ethane-1,1-diyl)bis(phosphonic acid)]	100 µg/mL	250	11	28	56	140	96	240		
CC(C)CCCC(C)CCOc1ccnc(NC(P(=O)(O)O)P(=O)(O)O)c1 (centres unmarked) [Compound 95, (((4-((3,7-Dimethyloctyl)oxy)pyridin-2-yl)amino)methylene)bisphosphonic acid]	110 µg/mL	230	2.5	5.2	69	140	79	160	630	1300
CC(C)CCCC(C)CCOc1ccnc(NCC(P(=O)(O)O)P(=O)(O)O)c1 (centres unmarked) [Compound 96, (2-((4-((3,7-Dimethyloctyl)oxy)pyridin-2-yl)amino)ethane-1,1-diyl)bis(phosphonic acid)]	180 µg/mL	420	11	26	52	120	100	240		
CC(C)CCCC(C)CCCC(C)CCCC(C)CCOc1ccc[n+](CC(P(=O)([O-])O)P(=O)(O)O)c1 (centres unmarked) [Compound 97, Hydrogen(1-phosphono-2-(3-((3,7,11,15-tetramethylhexadecyl)oxy)pyridin-1-ium-1-yl)ethyl)phosphonate]	260 µg/mL	460	7.7	14	25	44	210	370		
CC(C)CCCC(C)CCc1ccc[n+](CC(P(=O)([O-])O)P(=O)(O)O)c1 (centres unmarked) [Compound 102, Hydrogen (2-(3-(3,7-dimethyloctyl)pyridin-1-ium-1-yl)-1-phosphonoethyl) phosphonate]	1.9 µg/mL									
CC(C)=CCC/C(C)=C/Cc1ccc[n+](CC(P(=O)([O-])O)P(=O)(O)O)c1 (centres unmarked) [Compound 103, 3-[(2E)-3,7-dimethylocta-2,6-dien-1-yl]-1-(2-hydrogenphosphonato-2-phosphonoethyl)pyridin-1-ium]	~ 9.2 μg/mL									
(((6-(4,8-Dimethylnonyl)pyridin-2-yl)amino)methylene)bis(phosphonic acid) [Compound 89]	26 µg/mL	60	3.0	6.9	32	73	93	210	480	1100
